Where two headings read alike, the source gives them in different places.
Assays:
PI 4-kinase beta = PI 4-kinase beta (Homo sapiens, UniProt Q9UBF8); assay: Kinase Glo Luminescent Kinase Assay (Kglo), assay D; format: biochemical; conditions: read-out: Assay D PI4Kβ IC50
PI 3-kinase alpha [1] = target: T1, PI 3-kinase alpha (Homo sapiens, UniProt P42336); assay: Kinase Glo Luminescent Kinase Assay (Kglo), assay A; format: biochemical; conditions: read-out: Assay A PI3Kα IC50
PI 3-kinase gamma [2] = target: T2, PI 3-kinase gamma (Homo sapiens, UniProt P48736); assay: TR-FRET Adapta assay, assay E; format: biochemical; conditions: read-out: Assay E PI3Kγ IC50
PI 3-kinase beta [3] = target: T3, PI 3-kinase beta (Homo sapiens, UniProt P42338); assay: Cellular assay I1, p-Akt (S473) in Rat-1 cells, Surefire format; format: cell-based; conditions: non-asterisked data: version I1 (Surefire format), Rat-1 cells; read-out: Assay I PI3Kβ IC50
Text: Cellular Assays for PI 3-Kinase Alpha (H1), Beta (I1) and Delta (J1): Surefire Format
AlphaScreen (Amplified Luminescent Proximity Homogeneous Assay, ALPHA, Perkin Elmer) is a non-radioactive bead-based proximity assay technology to study biomolecular interactions in a homogenous microtiter plate format. The brand name SureFire denotes AlphaScreen assays that are adapted to quantify the phosphorylation of endogenous cellular proteins in cell lysates, by using matched antibody pairs, which consist of an anti-phospho-kinase and an anti-kinase antibody. The assay allows characterization of kinase signaling in cells as well as measurement of kinase inhibitor effects.
Using Rat-1 cells stably expressing myr-HA-tagged versions of the human PI3Kdelta, PI3Kalpha, or PI3Kbeta p110 catalytic subunit isoforms, the assay was developed as a two-plate protocol in a 384-well format.
For compound testing, the cells were seeded at a density of 4000 (Rat-1_PI3Kdelta), 7500 (Rat-1_PI3Kalpha), or 6200 (Rat-1_PI3Kbeta) cells in 20 μl complete growth medium into cell culture treated 384-well plates and were grown at 37° C./5% CO2/90% humidity for 24 h. Shortly before compound transfer, the complete medium was removed, 30 μl assay buffer (DMEM high glucose, 1×MEM NEAA, 10 mM HEPES, 2 mM L-glutamine, 0.1% (w/v) BSA) was added and 10 μl of the compound predilutions were transferred to the cells.

PI 3-kinase alpha [4] = target: T1, PI 3-kinase alpha; assay: Cellular assay H1, p-Akt (S473) in Rat-1 cells, Surefire format; format: cell-based; conditions: non-asterisked data: version H1 (Surefire format), Rat-1 cells; read-out: Assay H PI3Kα IC50
Vps34 = Vps34 (Homo sapiens, UniProt Q8NEB9); assay: Kinase Glo Luminescent Kinase Assay (Kglo), assay C; format: biochemical; conditions: read-out: Assay C VPS34 IC50
PI 3-kinase delta [5] = target: T4, PI 3-kinase delta (Homo sapiens, UniProt O00329); assay: Cellular assay J1, p-Akt (S473) in Rat-1 cells, Surefire format; format: cell-based; conditions: non-asterisked data: version J1 (Surefire format), Rat-1 cells; read-out: Assay J PI3Kδ IC50
Target sequence in this assay (O00329 whole entry): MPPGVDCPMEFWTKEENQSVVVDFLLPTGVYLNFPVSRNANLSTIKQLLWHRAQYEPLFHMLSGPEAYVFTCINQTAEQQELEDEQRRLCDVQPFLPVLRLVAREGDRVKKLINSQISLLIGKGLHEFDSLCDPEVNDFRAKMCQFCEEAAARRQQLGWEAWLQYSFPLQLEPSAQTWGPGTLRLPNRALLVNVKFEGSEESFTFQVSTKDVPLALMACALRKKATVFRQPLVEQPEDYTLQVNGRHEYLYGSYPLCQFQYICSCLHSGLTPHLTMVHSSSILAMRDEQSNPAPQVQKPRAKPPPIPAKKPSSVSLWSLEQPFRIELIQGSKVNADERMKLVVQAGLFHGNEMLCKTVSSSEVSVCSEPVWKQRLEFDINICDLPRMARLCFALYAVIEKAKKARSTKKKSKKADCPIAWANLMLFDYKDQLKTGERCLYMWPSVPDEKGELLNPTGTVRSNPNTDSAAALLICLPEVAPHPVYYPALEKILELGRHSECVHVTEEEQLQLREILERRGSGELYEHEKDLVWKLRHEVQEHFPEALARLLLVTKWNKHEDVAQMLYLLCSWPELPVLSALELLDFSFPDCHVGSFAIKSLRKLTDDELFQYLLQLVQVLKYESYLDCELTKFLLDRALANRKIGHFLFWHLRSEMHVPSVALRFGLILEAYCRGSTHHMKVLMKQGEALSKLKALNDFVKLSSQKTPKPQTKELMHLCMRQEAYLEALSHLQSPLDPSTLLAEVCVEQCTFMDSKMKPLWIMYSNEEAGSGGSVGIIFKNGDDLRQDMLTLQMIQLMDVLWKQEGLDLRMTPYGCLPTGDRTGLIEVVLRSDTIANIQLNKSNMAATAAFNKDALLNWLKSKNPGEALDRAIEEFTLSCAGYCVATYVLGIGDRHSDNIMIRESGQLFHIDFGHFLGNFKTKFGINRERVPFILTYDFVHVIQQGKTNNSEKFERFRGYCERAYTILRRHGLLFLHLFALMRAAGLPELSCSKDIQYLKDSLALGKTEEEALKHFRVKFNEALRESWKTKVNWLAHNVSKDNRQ
Target sequence in this assay (Q63787 whole entry partner): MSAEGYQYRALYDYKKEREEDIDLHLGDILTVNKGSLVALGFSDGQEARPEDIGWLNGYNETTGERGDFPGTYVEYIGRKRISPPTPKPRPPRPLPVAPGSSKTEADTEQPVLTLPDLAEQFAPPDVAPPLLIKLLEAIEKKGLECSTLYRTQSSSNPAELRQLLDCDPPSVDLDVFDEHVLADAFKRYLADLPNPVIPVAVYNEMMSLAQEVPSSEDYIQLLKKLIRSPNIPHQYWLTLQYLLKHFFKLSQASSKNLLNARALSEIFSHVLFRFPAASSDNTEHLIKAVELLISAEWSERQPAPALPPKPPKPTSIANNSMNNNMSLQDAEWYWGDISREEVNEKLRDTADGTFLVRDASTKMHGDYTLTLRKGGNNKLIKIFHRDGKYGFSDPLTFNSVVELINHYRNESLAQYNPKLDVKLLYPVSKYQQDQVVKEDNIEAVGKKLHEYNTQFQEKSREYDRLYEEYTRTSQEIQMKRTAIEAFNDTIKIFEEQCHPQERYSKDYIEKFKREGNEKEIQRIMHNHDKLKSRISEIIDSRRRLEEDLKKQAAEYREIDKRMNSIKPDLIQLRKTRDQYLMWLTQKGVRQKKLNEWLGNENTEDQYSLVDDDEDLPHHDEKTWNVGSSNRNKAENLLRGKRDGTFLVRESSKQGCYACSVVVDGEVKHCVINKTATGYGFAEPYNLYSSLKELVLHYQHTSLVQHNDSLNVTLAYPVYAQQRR

PI 3-kinase delta [6] = target: T4, PI 3-kinase delta; assay: TR-FRET Adapta assay, assay F; conditions: read-out: Assay F PI3Kδ IC50
Target sequence in this assay (O00329 whole entry): as the sequence (O00329 whole entry) above
Target sequence in this assay (P27986 461-568 partner): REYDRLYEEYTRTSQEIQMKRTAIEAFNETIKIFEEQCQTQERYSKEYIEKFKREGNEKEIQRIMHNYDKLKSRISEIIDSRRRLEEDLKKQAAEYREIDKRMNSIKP

PI 3-kinase gamma [7] = target: T2, PI 3-kinase gamma; assay: Cellular U937 AKT assay K1 (MSD); format: cell-based; conditions: U937 cells, K1 format; read-out: Assay K1 PI3Kγ IC50
PI 3-kinase beta [8] = target: T3, PI 3-kinase beta; assay: Kinase Glo Luminescent Kinase Assay (Kglo), assay B; format: biochemical; conditions: read-out: Assay B PI3Kβ IC50
[9] = Microsomal clearance assay (M); conditions: intrinsic clearance in rat liver microsomes
Experimental: The experiments were performed in 96-well glass plates at 37° C. on an automated Tecan EVO platform. Test compounds at a concentration of 10 mM in pure DMSO were diluted 1:1000 in water to 10 μM. […] Reactions were initiated by the addition of 150 μL of a cofactor solution containing 2 mM NADPH.

mTOR = mTOR (Homo sapiens, UniProt P42345); assay: Lanthascreen kinase binding assay, assay G; conditions: read-out: Assay G mTOR IC50
Experimental: Lanthascreen™ Kinase Binding Assay for mTOR (G)
Binding of an inhibitor to the kinase competes for binding with the tracer, resulting in a loss of FRET.
50 nL of compound dilutions were dispensed onto white 384-well small volume polystyrene plate.

[10] = test system: IL-8-induced neutrophil shape change in human whole blood; assay: Whole blood neutrophil shape change assay (L); format: cell-based; conditions: IL-8, human whole blood, read-out: Assay L WBSC IC50

T2 sequence (P48736 whole entry): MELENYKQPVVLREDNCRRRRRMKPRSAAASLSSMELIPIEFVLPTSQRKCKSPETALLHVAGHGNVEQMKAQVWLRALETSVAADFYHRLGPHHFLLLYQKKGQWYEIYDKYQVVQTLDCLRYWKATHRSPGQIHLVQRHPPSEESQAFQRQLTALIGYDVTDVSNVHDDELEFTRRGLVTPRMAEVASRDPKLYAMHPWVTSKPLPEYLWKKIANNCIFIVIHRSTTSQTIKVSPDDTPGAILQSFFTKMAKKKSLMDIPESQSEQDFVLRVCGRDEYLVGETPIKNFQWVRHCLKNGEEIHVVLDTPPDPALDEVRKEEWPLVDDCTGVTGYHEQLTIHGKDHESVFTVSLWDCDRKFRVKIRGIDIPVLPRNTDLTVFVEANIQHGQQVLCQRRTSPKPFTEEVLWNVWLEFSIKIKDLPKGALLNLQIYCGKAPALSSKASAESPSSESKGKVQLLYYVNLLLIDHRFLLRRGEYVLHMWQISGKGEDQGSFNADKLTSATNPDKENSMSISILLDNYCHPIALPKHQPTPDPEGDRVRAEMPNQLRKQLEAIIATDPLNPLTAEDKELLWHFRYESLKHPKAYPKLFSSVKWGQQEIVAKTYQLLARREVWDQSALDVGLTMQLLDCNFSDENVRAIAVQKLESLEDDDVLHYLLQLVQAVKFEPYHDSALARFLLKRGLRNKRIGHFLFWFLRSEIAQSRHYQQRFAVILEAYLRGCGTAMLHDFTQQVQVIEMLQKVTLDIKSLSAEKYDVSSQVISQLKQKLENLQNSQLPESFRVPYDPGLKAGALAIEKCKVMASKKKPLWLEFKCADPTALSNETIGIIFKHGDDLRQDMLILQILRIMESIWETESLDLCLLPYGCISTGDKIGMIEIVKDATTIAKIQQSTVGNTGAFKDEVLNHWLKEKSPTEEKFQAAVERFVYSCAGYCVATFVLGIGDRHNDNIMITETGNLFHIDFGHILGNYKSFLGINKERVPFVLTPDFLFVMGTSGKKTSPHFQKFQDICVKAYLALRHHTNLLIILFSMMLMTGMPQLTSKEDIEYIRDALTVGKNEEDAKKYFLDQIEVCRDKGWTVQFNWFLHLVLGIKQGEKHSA
Chain of Vps34 (Q8NEB9 whole entry, species assumed): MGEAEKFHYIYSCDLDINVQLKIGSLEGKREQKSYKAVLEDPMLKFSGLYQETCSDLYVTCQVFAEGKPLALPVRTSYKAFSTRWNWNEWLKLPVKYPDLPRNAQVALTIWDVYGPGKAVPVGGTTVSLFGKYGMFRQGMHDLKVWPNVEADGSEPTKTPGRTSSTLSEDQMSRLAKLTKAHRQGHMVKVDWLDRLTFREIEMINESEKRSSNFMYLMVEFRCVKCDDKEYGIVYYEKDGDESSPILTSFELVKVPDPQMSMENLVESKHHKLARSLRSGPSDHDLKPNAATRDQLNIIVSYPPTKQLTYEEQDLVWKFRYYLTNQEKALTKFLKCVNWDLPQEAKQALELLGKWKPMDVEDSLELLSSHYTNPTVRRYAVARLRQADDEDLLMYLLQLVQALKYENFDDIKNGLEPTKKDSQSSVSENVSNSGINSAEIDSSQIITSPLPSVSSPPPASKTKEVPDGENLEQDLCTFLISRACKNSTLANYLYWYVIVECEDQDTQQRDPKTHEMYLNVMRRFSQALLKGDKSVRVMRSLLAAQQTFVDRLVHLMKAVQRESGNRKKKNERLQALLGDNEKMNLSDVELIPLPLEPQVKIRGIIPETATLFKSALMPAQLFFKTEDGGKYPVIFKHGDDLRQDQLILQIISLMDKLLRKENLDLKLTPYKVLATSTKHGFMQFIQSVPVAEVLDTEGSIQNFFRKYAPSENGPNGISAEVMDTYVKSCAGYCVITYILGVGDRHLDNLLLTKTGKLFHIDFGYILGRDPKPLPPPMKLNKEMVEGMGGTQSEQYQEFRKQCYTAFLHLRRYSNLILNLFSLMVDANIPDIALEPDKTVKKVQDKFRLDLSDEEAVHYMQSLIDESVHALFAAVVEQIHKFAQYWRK
Chain of PI 4-kinase beta (Q9UBF8 whole entry): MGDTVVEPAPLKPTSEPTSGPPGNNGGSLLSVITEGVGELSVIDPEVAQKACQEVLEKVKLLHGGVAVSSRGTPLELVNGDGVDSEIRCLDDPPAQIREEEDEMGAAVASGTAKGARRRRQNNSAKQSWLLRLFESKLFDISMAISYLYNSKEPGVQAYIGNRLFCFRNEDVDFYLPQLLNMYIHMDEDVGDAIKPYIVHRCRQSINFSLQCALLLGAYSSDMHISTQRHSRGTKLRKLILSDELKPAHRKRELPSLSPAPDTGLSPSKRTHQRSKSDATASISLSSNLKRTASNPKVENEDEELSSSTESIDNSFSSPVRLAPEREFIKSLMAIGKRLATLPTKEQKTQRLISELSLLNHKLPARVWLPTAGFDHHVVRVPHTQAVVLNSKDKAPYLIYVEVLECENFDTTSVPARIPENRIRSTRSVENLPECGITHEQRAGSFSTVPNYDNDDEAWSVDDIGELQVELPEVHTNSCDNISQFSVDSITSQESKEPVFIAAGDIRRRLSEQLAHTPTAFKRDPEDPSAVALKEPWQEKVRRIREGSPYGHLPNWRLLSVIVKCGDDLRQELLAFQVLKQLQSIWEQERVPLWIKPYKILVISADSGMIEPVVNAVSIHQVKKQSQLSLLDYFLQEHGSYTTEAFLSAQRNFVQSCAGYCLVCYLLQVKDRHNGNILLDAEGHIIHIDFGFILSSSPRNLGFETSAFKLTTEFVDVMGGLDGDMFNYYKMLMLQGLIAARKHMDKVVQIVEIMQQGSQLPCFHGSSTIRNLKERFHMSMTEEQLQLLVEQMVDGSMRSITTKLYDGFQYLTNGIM

| IC50 (PI 4-kinase beta) [nM] | IC50 (PI 3-kinase alpha [1]) [nM] | IC50 (PI 3-kinase gamma [2]) [nM] | IC50 (PI 3-kinase beta [3]) [nM] | IC50 (PI 3-kinase alpha [4]) [nM] | IC50 (Vps34) [nM] | IC50 (PI 3-kinase delta [5]) [nM] | IC50 (PI 3-kinase delta [6]) [nM] | IC50 (PI 3-kinase gamma [7]) [nM] | IC50 (PI 3-kinase beta [8]) [nM] | Assay M RLM CI(int) [9] [µL/min/mg] | IC50 (mTOR) [nM] | IC50 [10] [nM] | IC50 ([10]; Homo sapiens, Neutrophil) [nM] | SMILES |
| --- | --- | --- | --- | --- | --- | --- | --- | --- | --- | --- | --- | --- | --- | --- |
| > 10000 | 390 | 57 | 8470 | 6680 | > 10000 | 5180 | 690 | 135 | 1400 | 227 | 9600 | 1950 | – | Cc1ccc(S(=O)(=O)N[C@H]2CC[C@@](C)(O)CC2)cc1-c1cnc(N)c(-n2cncn2)n1 [Example 69b, 3-(5-amino-6-(1H-1,2,4-triazol-1-yl)pyrazin-2-yl)-N-(cis-4-hydroxy-4-methylcyclohexyl)-4-methylbenzenesulfonamide] |
| 6400 | 140 | 9 | 1860 | 900 | > 10000 | 620 | 250 | 43 | 1020 | 47 | 5300 | – | 154 | Cc1ccc(S(=O)(=O)NC[C@H]2CCOC2)cc1-c1cnc(N)c(-c2cn(C)nc2C)n1 [Example 16, 3-[5-Amino-6-(1,3-dimethyl-1H-pyrazol-4-yl)-pyrazin-2-yl]-4-methyl-N—[(R)-1-(tetrahydrofuran-3-yl)methyl]-benzenesulfonamide] |
| 5640 | 320 | 39 | 3530 | 2980 | 8990 | 2210 | 480 | 117 | 2350 | 38 | 8640 | – | 1110 | Cc1cc(F)c(S(=O)(=O)NCCC(C)(C)O)cc1-c1cnc(N)c(-c2cnn(C)c2)n1 [Example 115, 5-(5-Amino-6-(1-methyl-1H-pyrazol-4-yl)pyrazin-2-yl)-2-fluoro-N-(3-hydroxy-3-methylbutyl)-4-methylbenzenesulfonamide] |
| > 9100 | 350 | 15 | 5380 | 2260 | > 9100 | 2000 | 390 | 177 | 1830 | 64 | > 9100 | – | 803 | Cc1ccc(S(=O)(=O)NCC(C)(C)CO)cc1-c1cnc(N)c(-n2cncn2)n1 [Example 73, 3-(5-Amino-6-(1H-1,2,4-triazol-1-yl)pyrazin-2-yl)-N-(3-hydroxy-2,2-dimethylpropyl)-4-methylbenzenesulfonamide] |
| 3580 | 140 | 10 | 6910 | 2570 | > 9100 | 3520 | 130 | 57 | 2620 | 78 | 5890 | – | 157 | Cc1ccc(S(=O)(=O)N[C@H]2CC[C@H](O)CC2)cc1-c1cnc(N)c(-c2ccncc2)n1 [Example 11, Trans-3-(5-Amino-6-(pyridin-4-yl)pyrazin-2-yl)-N-(4-hydroxycyclohexyl)-4-methylbenzenesulfonamide] |
| 1960 | 40 | < 3 | 6030 | 750 | 410 | 370 | 20 | 21 | 1520 | 50 | 270 | – | 169 | Cc1ncc(-c2nc(-c3cc(S(=O)(=O)NCC(C)(C)CO)ccc3C)cnc2N)s1 [Example 8, 3-[5-Amino-6-(2-methyl-thiazol-5-yl)-pyrazin-2-yl]-N-(3-hydroxy-2,2-dimethyl-propyl)-4-methyl-benzenesulfonamide] |
